Results on one compound are retold here after patent publication US8168232B2, “Formulations and methods of using nitric oxide mimetics in cancer treatment” (priority 2000, dated 2012).

One assay concerns PROXY-1 mRNA. Put plainly: PROXY-1 mRNA levels in HTR-8/SVneo invasive trophoblast cells. Type of assay: cell-based, human. The settings on record: 1% O2. From the text: PROXY-1 mRNA levels were very low in cells cultured in 20% O2.
The test system of assay [1] is Bl6F10 metastatic melanoma cells. Briefly: In vivo experimental metastasis (lung colonization) model. Details: species or system C57BL6 mice. As for the experimental part:
C57BL6 mice were injected i.v. (tail vein) with a bolus of 5×10^4-10^5 Bl6F10 metastatic melanoma cells. Immediately after the tail vein injection, mice were randomly divided into groups of 15 and mice in each group were placed in plexiglass chambers (approximately 3 L) which were continuously flushed with gas mixtures of 20% O2:balance N2 and 10% O2:balance N2, respectively. […] After a 24 hour exposure to an atmosphere of either 20% O2 or 10% O2, mice were removed from the chambers and placed in regular cages kept at room air. Thirteen days later, mice were sacrificed by cervical dislocation, and lungs were removed and fixed in Bouin's fixative (Sigma). Metastatic nodules (many of which appeared black due to the presence of melanin) on the surface of the lungs were counted visually under a dissecting microscope. Data were expressed as the number of lung nodules per 10^4 cells injected and were analyzed using statistical tests for non-parametric values.
Cells were then removed from plates with trypsin and 5×10^4 cells were injected i.v. (tail vein) into C57BL6 female mice. Some of the cells treated in vitro were plated onto tissue culture dishes to determine colony-forming ability using the protocol described below in the Section I.J.
Following harvesting from culture plates, 5×10^4 cells were injected intravenously (tail vein injections) into 5-7 week old C57Bl/6 female mice. Cells were also plated in tissue culture plates to determine the effect of culture conditions on in vitro colony forming ability. Fourteen days after intravenous inoculation, mice were sacrificed and their lungs were removed and fixed in Bouin's fixative. Both melanotic and amelanotic metastatic colonies were counted under a dissecting microscope. Data were expressed as the number of lung nodules per 5×10^4 viable cells injected (as determined by in vitro colony-forming ability) and were analyzed using statistical tests for non-parametric values.

In a further assay the test system is uPAR protein. Briefly: Western blot analysis of uPAR protein in MDA-MB-231 breast carcinoma cells. Type of assay: cell-based, human. On the procedure:
Following incubations, the cells were lysed using a buffer containing 40 mM HEPES pH 7.2, 100 mM NaCl, 20% glycerol, 0.1 mM EDTA pH 8.0, 0.2% Triton X-100, 1 mM DTT, and 2 mM PMSF. The lysates were then subjected to homogenization, DNA shearing (10 times with a 25⅝-gauge needle), boiling (5 minutes) and centrifugation (15 minutes, 14000 g). The supernatant was collected and stored at −80° C. until use. The samples were subjected to SDS-polyacrylamide gel electrophoresis (PAGE) and the resolved proteins were transferred to an Immobilon-P membrane using a wet transfer apparatus (Bio-Rad Laboratories, Mississauga, ON). The membranes were blocked overnight at 4° C. in a solution containing 1% PBS, and 0.01% Tween20 (PBS-T) as well as 5% casein. The blots were subsequently incubated for 1.5 hours with the monoclonal anti-uPAR antibody [MoAb 3937], followed by six 5 minute washes with PBS-T. The membranes were then incubated with a horseradish peroxidase labeled goat anti-mouse IgG secondary antibody for 1.5 hours. Following six additional 5 minute washes with PBS-T, the antigen was detected by enhanced chemiluminescence and the blots were exposed onto Dupont Reflection NEF film.
Following incubation, the cells were lysed using a buffer containing 40 mM HEPES pH 7.2, 100 mM NaCl, 20% glycerol, 0.1 mM EDTA pH 8.0, 0.2% Triton X-100, 1 mM dithiothreitol (DTT), and 2 mM phenylmethyl sulfonyl fluoride (PMSF). The lysates were then subjected to homogenization, DNA shearing (10 times with a 25⅝-gauge needle), boiling (5 minutes) and centrifugation (15 minutes at 14,000×g). The supernatant was collected and stored at −80° C. until use. The samples were subjected to SDS-polyacrylamide gel electrophoresis (PAGE) and the resolved proteins were transferred to an Immobilon-P membrane (Millipore Corp., Bedford, Mass.) using a wet transfer apparatus (BioRad Laboratories, Mississauga, ON). The membranes were blocked overnight at 4° C. in a solution containing 1% PBS, and 0.01% Tween 20 (PBS-T) as well as 5% dry milk powder. The blots were subsequently incubated for 1.5 hours with the monoclonal anti-uPAR (MoAb 3937; American Diagnostica Inc., Greenwich, Conn.), or a polyclonal soluble guanylate cyclase (sGC) antiserum (Cayman Chemical, Ann Arbor, Mich.) followed by six 5-minute washes with PBS-T. Subsequently, the uPAR membranes were incubated for 1 hour with a horseradish peroxidase labelled goat anti-mouse IgG secondary antibody (Bio-Rad, Hercules, Calif.) and the sGC membranes were incubated for 1 hour with a goat anti-rabbit IgG horseradish peroxidase conjugate (VECTOR Laboratories Inc., Burlingame, Calif.). Following six additional 5-minute washes with PBS-T, the antigen was detected by enhanced chemiluminescence (Amersham Canada Inc., Mississauga, ON) and the blots were exposed onto Dupont Reflection NEF film.
On the technique in general: Immunoblotting shows a protein as a band on a membrane.

The test system of assay [2] is MDA-MB-231 breast carcinoma spheroids. Briefly: Clonogenic survival of MDA-MB-231 spheroids after doxorubicin. Type of assay: cell-based, human. As for the experimental part:
Following initial cell plating, spheroids formed for 24, 48, 72, 96 or 120 h. At each time point, spheroids were exposed to 200 μM of doxorubicin, then disaggregated and plated for assessment of colony formation (survival).
Spheroids were allowed to form for 72 h. DETA/NO was applied for the final 24 h of spheroid formation. Spheroids were then exposed to doxorubicin for 1 h, prior to disaggregation and plating for assessment of survival by clonogenic assay.
Using human MDA-MB-231 breast carcinoma cells in clonogenic assays, survival was determined following doxorubicin exposure and NO mimetic administration to both monolayer and spheroid cultures.

Regarding `O=[N+]([O-])OCC(CO[N+](=O)[O-])O[N+](=O)[O-]` [GTN, glyceryl trinitrate], the “PROXY-1 mRNA levels in hypoxic cells” value with PROXY-1 mRNA (10^−7 M GTN) is reported as “increased”; with PROXY-1 mRNA (10^−11 M GTN), “much lower”. For the same compound, the “decrease of hypoxia-stimulated lung nodule formation” value in assay [1] (cells pre-treated in vitro 12 h, 1% O2, 2×10^−11 M GTN) amounted to 85%. The “reduction of extent of metastasis” value in assay [1] (cells pre-treated in vitro 12 h, 20% oxygen, 2×10^−11 M GTN) was “more than 60%”. Further, the “attenuation of L-NMMA metastatic response” value in assay [1] (concomitant GTN (10^−10 M) and L-NMMA) was found to be 60%. For the same compound, the “uPAR protein levels vs 20% O2 alone” value in the assay with uPAR protein (combination of L-NMMA (0.5 mM) and GTN (0.1 nM), 20% O2) was “no significant increase”. In the assay on uPAR protein (single doses GTN 1 pM, 1 nM and 0.1 μM, 24 hours 0.5% oxygen), the “hypoxic upregulation of uPAR protein expression” value is on record as “prevent the upregulation”. Further, the “survival of control (doxorubicin-untreated) cells” value in assay [2] (DETA 0.1 mM and 2 μM, GTN 0.1 nM and 1 μM) is on record as “did not affect the survival”. The “attenuation of resistance to 200 μM doxorubicin associated with 3D culture” value in assay [2] (spheroids) came out at 30%.
